Values quoted from earlier work, collected in US8362260B2, “Crystalline forms of dexlansoprazole” (Dipharma Francis S.r.l., priority 2009, dated 2013).

Details: in vivo

- bioavailability: greater bioavailability
Structure (SMILES): Cc1c(OCC(F)(F)F)ccnc1C[S@@+]([O-])c1nc2ccccc2[nH]1 [Dexlansoprazole in amorphous form, (R)-2-[[[3-methyl-4(2,2,2-trifluoroethoxy)-2-piridyl]methyl]sulphinyl]benzimidazole]
